Data as given in patent US11590134B2, “Aminopyrimidine amide autophagy inhibitors and methods of use thereof” (Deciphera Pharmaceuticals, LLC, priority 2019, dated 2023).
pIC50: −log10 of the molar value.

Legend:
ULK1 kinase [1] = target: T1, ULK1 kinase (Homo sapiens, UniProt O75385, E37A/K38A); assay: Biochemical assay for ULK1.3 (coupled pyruvate kinase/lactate dehydrogenase assay); details: 0.1 nM ULK1 (residues 1-283), peptide substrate, 1 mM ATP
T1 construct: (residues 1-283; ID NO: 2); purchased Beryllium
T1 sequence (O75385 1-283 E37A/K38A): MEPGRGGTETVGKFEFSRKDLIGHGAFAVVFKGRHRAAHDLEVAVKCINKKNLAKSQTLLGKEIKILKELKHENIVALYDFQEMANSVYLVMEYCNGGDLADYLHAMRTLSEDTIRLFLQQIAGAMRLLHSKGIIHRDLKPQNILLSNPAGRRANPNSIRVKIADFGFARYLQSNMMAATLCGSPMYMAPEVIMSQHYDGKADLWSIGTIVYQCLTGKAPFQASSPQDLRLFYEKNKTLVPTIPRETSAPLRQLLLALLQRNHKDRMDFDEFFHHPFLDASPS
Method: Activity of ULK1 kinase was determined spectroscopically using a coupled pyruvate kinase/lactate dehydrogenase assay that continuously monitors the ATP hydrolysis-dependent oxidation of NADH (e.g., Schindler et al. Science (2000) 289: 1938-1942). Assays were conducted in 384-well plates (100 uL final volume) using 0.1 nM ULK1 (from Beryllium), 0.075 mM peptide substrate (YANWLAASIYLDGKKK (SEQ ID NO: 5)), 1.5 units pyruvate kinase, 2.1 units lactate dehydrogenase, 1 mM phosphoenol pyruvate, 0.28 mM NADH and 1 mM ATP in assay buffer (100 mM Tris, pH 7.5, 15 mM MgCl2, 0.5 mM DTT, 0.004% (w/v) BSA, and 0.004% Triton X-100). Inhibition of ULK1 was measured by adding serial diluted test compound (final assay concentration of 1% DMSO). A decrease in absorption at 340 nm was monitored continuously for 6 hours at 30° C. on a multi-mode microplate reader (BioTek). The reaction rate was calculated using the 2-3 h time frame. The reaction rate at each concentration of compound was converted to percent inhibition using controls (i.e. reaction with no test compound and reaction with a known inhibitor) and IC50 values were calculated using software routines in Prism (GraphPad software).

[2] = tested on: ULK kinase substrate ATG13 (phospho-Serine 318 ATG13) in A549 cells; assay: pATG13 ELISA in mutant KRas A549 cells in combination with trametinib; assay type: cell-based; details: A549 (KRAS mutant) human lung cancer cells, with 250 nM trametinib, overnight
Method: A549 (KRAS mutant) human lung cancer cells (6,000 cells/well) were added to a 384-well tissue-culture treated plate in 50 μL of pre-warmed DMEM medium supplemented with 10% characterized fetal bovine serum (Invitrogen, Carlsbad, Calif.), 100 units/mL penicillin G, and 100 μg/mL streptomycin and allowed to grow overnight at 37° C., 5% CO2, and 95% humidity. The following day, 10 μL of media containing trametinib or DMSO as a control was added to wells. The final concentration of trametinib in wells was 250 nM. A dose response of a test compound (0.6 μL per well) was added. DMSO (0.6 μL) was added to control wells. The plate was briefly shaken to mix wells and then incubated at 37° C. overnight. The next day, the media was aspirated and cells were washed with Dulbecco's Phosphate Buffered Saline (Gibco). Cells were lysed using MPER lysis buffer (Pierce, Rockford, Ill.) containing Halt Phosphatase and Protease Inhibitors (Pierce, Rockford, Ill.) and Phosphatase inhibitor cocktail 2 (Sigma, St. Louis, Mo.) at 4° C. for 10 minutes with shaking.
Cellular levels of phospho-Serine 318 ATG13 (pATG13) were measured via an ELISA method. Total ATG13 Antibody (Cell Signaling Cat #13273) was used to coat the wells. The plate was incubated at 4° C. overnight and washed with ELISA wash buffer (Biolegend Cat #421601). The wells were then blocked with assay diluent (Biolegend Cat #421203) for 1 hour at room temperature. Plate wells were washed with ELISA wash buffer. Cell lysate was added to wells and incubated at room temperature for 2 hours. Plate wells were washed with ELISA wash buffer. Biotinylated pS318-ATG13 antibody (Rockland Immunochemicals Cat #600-401-C49) was diluted in assay diluent and added to each well and incubated at room temperature for 1 hour. Plate wells were washed with ELISA wash buffer. Streptavidin linked to horseradish peroxidase (Thermo Fisher Cat #21140) was diluted in assay diluent and added to each well and incubated at room temperature for 1 hour. Plate wells were washed with ELISA wash buffer. High sensitivity TMB substrate (Biolegend Cat #421101) was added to each well and incubated at room temperature for 20 minutes. The reaction was stopped with 2N Sulfuric Acid. The plate was analyzed at on a plate reader measuring absorbance at 450 nm and 540 nm (background). Signal was calculated by first subtracting the background absorbance at 540 nm from the absorbance at 450 nm for each well. Next, the background corrected absorbance at 450 nm from blank wells was subtracted from test wells. Data was compared to control wells to determine % ATG13 phosphorylation. GraphPad Prism was used to calculate IC50 values.

ULK1 kinase [3] = target: T2, ULK1 kinase (Homo sapiens, UniProt O75385); assay: Biochemical assay for ULK1.2 (coupled pyruvate kinase/lactate dehydrogenase assay); details: 19 nM ULK1 (residues 1-314), myelin basic protein substrate, 1 mM ATP
T2 construct: purchased Eurofins 14-959
T2 sequence (O75385 with tags, fused parts or gaps): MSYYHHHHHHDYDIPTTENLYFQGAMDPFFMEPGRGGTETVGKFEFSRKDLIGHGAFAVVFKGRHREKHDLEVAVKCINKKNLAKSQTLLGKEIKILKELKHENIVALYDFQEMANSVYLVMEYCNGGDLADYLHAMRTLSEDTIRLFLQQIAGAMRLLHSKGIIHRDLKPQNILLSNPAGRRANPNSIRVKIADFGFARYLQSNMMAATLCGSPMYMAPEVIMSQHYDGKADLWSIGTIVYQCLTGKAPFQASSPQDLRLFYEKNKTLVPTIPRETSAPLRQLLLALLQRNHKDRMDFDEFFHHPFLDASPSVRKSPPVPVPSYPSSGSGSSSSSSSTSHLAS
Method: Activity of ULK1 kinase was determined spectroscopically using a coupled pyruvate kinase/lactate dehydrogenase assay that continuously monitors the ATP hydrolysis-dependent oxidation of NADH (e.g., Schindler et al. Science (2000) 289: 1938-1942). Assays were conducted in 384-well plates (100 uL final volume) using 19 nM ULK1 (Eurofins CAT #14-959), 0.25 mg/mL myelin basic protein, 1.5 units pyruvate kinase, 2.1 units lactate dehydrogenase, 1 mM phosphoenol pyruvate, 0.28 mM NADH and 1 mM ATP in assay buffer (100 mM Tris, pH 7.5, 15 mM MgCl2, 0.5 mM DTT, 0.1% octyl-glucoside, 0.002% (w/v) BSA, and 0.002% Triton X-100). Inhibition of ULK1 was measured by adding serial diluted test compound (final assay concentration of 1% DMSO). A decrease in absorption at 340 nm was monitored continuously for 6 hours at 30° C. on a multi-mode microplate reader (BioTek). The reaction rate was calculated using the 2-3 h time frame. The reaction rate at each concentration of compound was converted to percent inhibition using controls (i.e. reaction with no test compound and reaction with a known inhibitor) and IC50 values were calculated by fitting a four-parameter sigmoidal curve to the data using Prism (GraphPad software).

SMILES | pIC50 (ULK1 kinase [1]) | pIC50 [2] | pIC50 (ULK1 kinase [3])
COc1cc(N2CCN(C)CC2)ccc1Nc1ncc(C(F)(F)F)c(NCCCNC(=O)C2CCC2)n1 [Example 4] | 7.00 to 7.60 | 6.52 to 7.00 | –
Cc1cc(N2CCN(C)CC2)ccc1Nc1ncc(C(F)(F)F)c(NCCCNC(=O)C(C)(C)C)n1 [Example 12] | – | 6.22 to 6.52 | 7.00 to 7.60
CN1CCN(c2ccc(Nc3ncc(C(F)(F)F)c(NCCCNC(=O)C4CCC4)n3)c(C3CC3)c2)CC1 [Example 14] | 7.60 to 9.00 | 7.00 to 8.00 | –

Further lines, results first:

pIC50 (ULK1 kinase [1]) | pIC50 [2] | pIC50 (ULK1 kinase [3]) | SMILES
7.60 to 9.00 | 6.52 to 7.00 | – | CC(C)c1cc(N2CCN(C)CC2)ccc1Nc1ncc(C(F)(F)F)c(NCCCNC(=O)C2CCC2)n1 [Example 3]
7.00 to 7.60 | 6.52 to 7.00 | – | CC(C)c1cc(N2CCN(C)CC2)ccc1Nc1ncc(Br)c(NCCCNC(=O)C2CCC2)n1 [Example 8]
